Assay results reported in PubChem BioAssay AID1963833 (Molecular Pharmacology Branch, DTP, NCI, 2024).

Test system: 883617-216-R-J1-PDC complex spheroid viability
Assay: Anticancer human tumor 883617-216-R-J1-PDC patient-derived bladder carcinoma cell line growth inhibition [POLQ]
Details: for IC50: curve of first compound; for viability, T/C: stronger effect = lower value
In short: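 Complex spheroid viability model combining PDC tumour cells with endothelial (HUVEC) and MSC stromal cells. Novobiocin, ART-558 or RP6685 were tested singly and in combination with standard and investigational anticancer drugs. Each was titrated in half-log steps from near clinical Cmax, or from 10 microM where Cmax was unknown.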

[1] = second compound 0.0316 µM, first compound 0.0316 µM
[2] = second compound 0.0316 µM, first compound 0.1 µM
[3] = second compound 0.0316 µM, first compound 0.316 µM
[4] = second compound 0.0316 µM, first compound 1 µM
[5] = second compound 0.0316 µM, first compound 3.16 µM
[6] = second compound 0.0316 µM, first compound 10 µM
[7] = second compound 0.1 µM, first compound 0.0316 µM
[8] = second compound 0.1 µM, first compound 0.1 µM
[9] = second compound 0.1 µM, first compound 0.316 µM
[10] = second compound 0.1 µM, first compound 1 µM
[11] = second compound 0.1 µM, first compound 3.16 µM
[12] = second compound 0.1 µM, first compound 10 µM
[13] = second compound 0.316 µM, first compound 0.0316 µM
[14] = second compound 0.316 µM, first compound 0.1 µM
[15] = second compound 0.316 µM, first compound 0.316 µM
[16] = second compound 0.316 µM, first compound 1 µM
[17] = second compound 0.316 µM, first compound 3.16 µM
[18] = second compound 0.316 µM, first compound 10 µM
[19] = second compound 1 µM, first compound 0.0316 µM
[20] = second compound 1 µM, first compound 0.1 µM
[21] = second compound 1 µM, first compound 0.316 µM
[22] = second compound 1 µM, first compound 1 µM
[23] = second compound 1 µM, first compound 3.16 µM
[24] = second compound 1 µM, first compound 10 µM
[25] = second compound 3.16 µM, first compound 0.0316 µM
[26] = second compound 3.16 µM, first compound 0.1 µM
[27] = second compound 3.16 µM, first compound 0.316 µM
[28] = second compound 3.16 µM, first compound 1 µM
[29] = second compound 3.16 µM, first compound 3.16 µM
[30] = second compound 3.16 µM, first compound 10 µM
[31] = second compound 10 µM, first compound 0.0316 µM
[32] = second compound 10 µM, first compound 0.1 µM
[33] = second compound 10 µM, first compound 0.316 µM
[34] = second compound 10 µM, first compound 1 µM
[35] = second compound 10 µM, first compound 3.16 µM
[36] = second compound 10 µM, first compound 10 µM
[37] = second compound 0.0316 µM, first compound 0.00316 µM
[38] = second compound 0.0316 µM, first compound 0.01 µM
[39] = second compound 0.1 µM, first compound 0.00316 µM
[40] = second compound 0.1 µM, first compound 0.01 µM
[41] = second compound 0.316 µM, first compound 0.00316 µM
[42] = second compound 0.316 µM, first compound 0.01 µM
[43] = second compound 1 µM, first compound 0.00316 µM
[44] = second compound 1 µM, first compound 0.01 µM
[45] = second compound 3.16 µM, first compound 0.00316 µM
[46] = second compound 3.16 µM, first compound 0.01 µM
[47] = second compound 10 µM, first compound 0.00316 µM
[48] = second compound 10 µM, first compound 0.01 µM
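Note: spheroids exposed to compounds for seven days before readout.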
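Throughout, for viability, T/C: 100% = DMSO vehicle control viability.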

## CNCc1ccc(-c2[nH]c3cc(F)cc4c3c2CCNC4=O)cc1 + Cc1cccc(N(C)C(=O)C2C(O)CCN2c2nc(C)cc(C(F)(F)F)c2C#N)c1
Second compound 0.0316 µM
  IC50: > 10000 nM
Second compound 0.1 µM
  IC50: > 10000 nM
Second compound 0.316 µM
  IC50: > 10000 nM
Second compound 1 µM
  IC50: > 10000 nM
Second compound 3.16 µM
  IC50: > 10000 nM
Second compound 10 µM
  IC50: > 10000 nM
[1]
  viability, T/C: 91.1%
[2]
  viability, T/C: 97.6%
[3]
  viability, T/C: 93%
[4]
  viability, T/C: 90.3%
[5]
  viability, T/C: 93.4%
[6]
  viability, T/C: 82.7%
[7]
  viability, T/C: 98.4%
[8]
  viability, T/C: 95.7%
[9]
  viability, T/C: 93.8%
[10]
  viability, T/C: 104%
[11]
  viability, T/C: 89%
[12]
  viability, T/C: 81.6%
[13]
  viability, T/C: 91.8%
[14]
  viability, T/C: 92%
[15]
  viability, T/C: 94.2%
[16]
  viability, T/C: 90.6%
[17]
  viability, T/C: 94.9%
[18]
  viability, T/C: 75.2%
[19]
  viability, T/C: 92.6%
[20]
  viability, T/C: 83.6%
[21]
  viability, T/C: 89.5%
[22]
  viability, T/C: 97.5%
[23]
  viability, T/C: 96.9%
[24]
  viability, T/C: 80.9%
[25]
  viability, T/C: 98.7%
[26]
  viability, T/C: 95.3%
[27]
  viability, T/C: 86.8%
[28]
  viability, T/C: 84.2%
[29]
  viability, T/C: 107%
[30]
  viability, T/C: 88.6%
[31]
  viability, T/C: 106%
[32]
  viability, T/C: 98.6%
[33]
  viability, T/C: 105%
[34]
  viability, T/C: 102%
[35]
  viability, T/C: 107%
[36]
  viability, T/C: 93.3%

## COc1cccc(OCCCN)c1-c1cc(Nc2cnc(C#N)cn2)n[nH]1 + Cc1cccc(N(C)C(=O)C2C(O)CCN2c2nc(C)cc(C(F)(F)F)c2C#N)c1
Second compound 0.0316 µM
  IC50: 71.6 nM
Second compound 0.1 µM
  IC50: 75.8 nM
Second compound 0.316 µM
  IC50: 30.2 nM
Second compound 1 µM
  IC50: 77.3 nM
Second compound 3.16 µM
  IC50: 92.7 nM
Second compound 10 µM
  IC50: 146 nM
[37]
  viability, T/C: 84.8%
[38]
  viability, T/C: 70.7%
[1]
  viability, T/C: 61.9%
[2]
  viability, T/C: 46.8%
[3]
  viability, T/C: 33.9%
[4]
  viability, T/C: 35%
[39]
  viability, T/C: 95.5%
[40]
  viability, T/C: 81.7%
[7]
  viability, T/C: 68.5%
[8]
  viability, T/C: 40.8%
[9]
  viability, T/C: 39.7%
[10]
  viability, T/C: 30.7%
[41]
  viability, T/C: 86.9%
[42]
  viability, T/C: 81.8%
[13]
  viability, T/C: 48.2%
[14]
  viability, T/C: 45.7%
[15]
  viability, T/C: 40.4%
[16]
  viability, T/C: 35.4%
[43]
  viability, T/C: 91.4%
[44]
  viability, T/C: 82.9%
[19]
  viability, T/C: 51.2%
[20]
  viability, T/C: 51.4%
[21]
  viability, T/C: 39.5%
[22]
  viability, T/C: 29.1%
[45]
  viability, T/C: 91.5%
[46]
  viability, T/C: 77%
[25]
  viability, T/C: 47.1%
[26]
  viability, T/C: 60.2%
[27]
  viability, T/C: 41.1%
[28]
  viability, T/C: 31.8%
[47]
  viability, T/C: 88.3%
[48]
  viability, T/C: 83.5%
[31]
  viability, T/C: 65.8%
[32]
  viability, T/C: 51.7%
[33]
  viability, T/C: 46.6%
[34]
  viability, T/C: 47.5%

## Cn1ncnc1[C@H]1c2n[nH]c(=O)c3cc(F)cc(c23)N[C@@H]1c1ccc(F)cc1 + Cc1cccc(N(C)C(=O)C2C(O)CCN2c2nc(C)cc(C(F)(F)F)c2C#N)c1
Second compound 0.0316 µM
  IC50: > 100 nM
Second compound 0.1 µM
  IC50: > 100 nM
Second compound 0.316 µM
  IC50: > 100 nM
Second compound 1 µM
  IC50: > 100 nM
Second compound 3.16 µM
  IC50: > 100 nM
Second compound 10 µM
  IC50: > 100 nM
Second compound 0.0316 µM, first compound 0.000316 µM
  viability, T/C: 99.2%
Second compound 0.0316 µM, first compound 0.001 µM
  viability, T/C: 101%
[37]
  viability, T/C: 93.4%
[38]
  viability, T/C: 78%
[1]
  viability, T/C: 74.4%
[2]
  viability, T/C: 73.7%
Second compound 0.1 µM, first compound 0.000316 µM
  viability, T/C: 96.3%
Second compound 0.1 µM, first compound 0.001 µM
  viability, T/C: 96.3%
[39]
  viability, T/C: 96.9%
[40]
  viability, T/C: 86.6%
[7]
  viability, T/C: 82.9%
[8]
  viability, T/C: 76.7%
Second compound 0.316 µM, first compound 0.000316 µM
  viability, T/C: 95.7%
Second compound 0.316 µM, first compound 0.001 µM
  viability, T/C: 98.3%
[41]
  viability, T/C: 94.2%
[42]
  viability, T/C: 81.1%
[13]
  viability, T/C: 72.8%
[14]
  viability, T/C: 64.2%
Second compound 1 µM, first compound 0.000316 µM
  viability, T/C: 98.1%
Second compound 1 µM, first compound 0.001 µM
  viability, T/C: 98.6%
[43]
  viability, T/C: 88.6%
[44]
  viability, T/C: 84.8%
[19]
  viability, T/C: 83%
[20]
  viability, T/C: 74%
Second compound 3.16 µM, first compound 0.000316 µM
  viability, T/C: 109%
Second compound 3.16 µM, first compound 0.001 µM
  viability, T/C: 96.8%
[45]
  viability, T/C: 94.8%
[46]
  viability, T/C: 84.5%
[25]
  viability, T/C: 81.8%
[26]
  viability, T/C: 69.2%
Second compound 10 µM, first compound 0.000316 µM
  viability, T/C: 103%
Second compound 10 µM, first compound 0.001 µM
  viability, T/C: 100%
[47]
  viability, T/C: 98.4%
[48]
  viability, T/C: 90.8%
[31]
  viability, T/C: 91.3%
[32]
  viability, T/C: 80.6%

## O=C(c1cc(Cc2n[nH]c(=O)c3ccccc23)ccc1F)N1CCN(C(=O)C2CC2)CC1 + Cc1cccc(N(C)C(=O)C2C(O)CCN2c2nc(C)cc(C(F)(F)F)c2C#N)c1
Second compound 0.0316 µM
  IC50: > 10000 nM
Second compound 0.1 µM
  IC50: > 10000 nM
Second compound 0.316 µM
  IC50: > 10000 nM
Second compound 1 µM
  IC50: > 10000 nM
Second compound 3.16 µM
  IC50: > 10000 nM
Second compound 10 µM
  IC50: > 10000 nM
[1]
  viability, T/C: 111%
[2]
  viability, T/C: 89.4%
[3]
  viability, T/C: 82.2%
[4]
  viability, T/C: 94.9%
[5]
  viability, T/C: 79.3%
[6]
  viability, T/C: 64.6%
[7]
  viability, T/C: 111%
[8]
  viability, T/C: 94%
[9]
  viability, T/C: 91%
[10]
  viability, T/C: 90.2%
[11]
  viability, T/C: 80.3%
[12]
  viability, T/C: 66.7%
[13]
  viability, T/C: 112%
[14]
  viability, T/C: 90.3%
[15]
  viability, T/C: 89.8%
[16]
  viability, T/C: 93.1%
[17]
  viability, T/C: 82.6%
[18]
  viability, T/C: 70.4%
[19]
  viability, T/C: 98.7%
[20]
  viability, T/C: 94.1%
[21]
  viability, T/C: 90.9%
[22]
  viability, T/C: 90.5%
[23]
  viability, T/C: 92%
[24]
  viability, T/C: 66.4%
[25]
  viability, T/C: 93.3%
[26]
  viability, T/C: 94.6%
[27]
  viability, T/C: 90.5%
[28]
  viability, T/C: 78.3%
[29]
  viability, T/C: 87.3%
[30]
  viability, T/C: 71.6%
[31]
  viability, T/C: 114%
[32]
  viability, T/C: 107%
[33]
  viability, T/C: 120%
[34]
  viability, T/C: 99.9%
[35]
  viability, T/C: 95%
[36]
  viability, T/C: 77.5%
